From patent publication US5250537A, “5,6,7,8,9,10-hexahydro-7 ,10-iminocyclohept[b]indole,-6,7,8,9,10-hexahydro-7,11-imino-5H-cyclooct[ b]indole and substituted derivatives” (Scios Nova Inc., priority 1992, dated 1993)
Where two headings read alike, the source gives them in different places.

Tests used:
dopamine (D-2) receptors = molecular target: T1, dopamine (D-2) receptors (Rattus norvegicus, UniProt P61169); test: In Vitro Dopamine (D-2) Receptor Binding, [3H]sulpiride
T1 construct: the corpus striatum was dissected and homogenized; from tissue; host or cells: rat corpus striatum membranes
T1 sequence (P61169 whole entry): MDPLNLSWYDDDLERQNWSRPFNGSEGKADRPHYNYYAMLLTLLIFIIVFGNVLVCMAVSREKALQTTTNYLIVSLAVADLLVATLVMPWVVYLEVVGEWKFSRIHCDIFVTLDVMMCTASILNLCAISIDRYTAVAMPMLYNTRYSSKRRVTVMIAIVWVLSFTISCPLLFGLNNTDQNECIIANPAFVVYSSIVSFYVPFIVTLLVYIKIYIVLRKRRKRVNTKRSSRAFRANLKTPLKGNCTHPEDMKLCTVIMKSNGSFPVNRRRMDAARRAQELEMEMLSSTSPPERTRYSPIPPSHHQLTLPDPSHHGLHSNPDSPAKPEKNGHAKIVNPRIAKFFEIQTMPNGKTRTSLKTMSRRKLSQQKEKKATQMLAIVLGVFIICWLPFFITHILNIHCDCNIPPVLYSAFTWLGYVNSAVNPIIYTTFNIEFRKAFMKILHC
Description: On the day of assay, rats were sacrificed by decapitation, the corpus striatum was dissected and homogenized in 20 volumes of ice-cold 50 mM Tris HCl (pH 7.5, 25° C.). The homogenate was centrifuged (4° C.) at 48,000×g for 10 minutes and the resulting pellet was resuspended in 20 volumes of fresh buffer and recentrifuged. […] A portion of the suspension (800 μL) was added in triplicate to tubes containing 3 nM [^3 H]sulpiride and the test compound. The final assay volume was 1 mL; haloperidol (10 μM) was used to determine non-specific binding. Following a 60 minute incubation at 25° C., the reactions were terminated by rapid filtration over Whatman GF/B filters which had been pretreated in a solution of 0.3% (w/v) of aqueous polyethylenimine. Filters were washed three times using 5 mL of ice-cold buffer and processed using standard procedures to determine radioactivity. IC50 values were obtained from concentration-response curves in which a number of concentrations of test compound were examined. Ki values were determined using the Cheng-Prusoff equation.

[1] = molecular target: T2, serotonin 5-HT2 receptors (Rattus norvegicus, UniProt P14842); test: In Vitro Serotonin (5-HT2) Receptor Binding, [3H]ketanserin; settings: for Ki: rat cortical membranes, 1 nM [3H]ketanserin
T2 construct: Rat cortical synaptosomal membranes were prepared on the day of assay; from tissue; host or cells: rat frontal cortex synaptosomal membranes
T2 sequence (P14842 whole entry): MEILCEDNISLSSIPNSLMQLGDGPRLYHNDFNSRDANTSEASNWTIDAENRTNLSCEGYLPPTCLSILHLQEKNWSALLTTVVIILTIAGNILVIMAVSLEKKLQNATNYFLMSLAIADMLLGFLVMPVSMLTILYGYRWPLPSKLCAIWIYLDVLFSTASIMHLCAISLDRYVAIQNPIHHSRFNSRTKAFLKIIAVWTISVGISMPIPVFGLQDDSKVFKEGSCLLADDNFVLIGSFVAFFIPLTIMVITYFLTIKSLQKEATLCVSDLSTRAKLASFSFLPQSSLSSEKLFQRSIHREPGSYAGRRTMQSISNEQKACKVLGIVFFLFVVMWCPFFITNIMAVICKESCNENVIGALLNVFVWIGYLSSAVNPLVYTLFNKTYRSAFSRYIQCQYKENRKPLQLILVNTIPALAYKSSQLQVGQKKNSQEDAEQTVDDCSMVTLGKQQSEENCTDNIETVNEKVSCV
Description: The potency of compounds to inhibit the specific binding of [^3 H]ketanserin (84.2 Ci/mM) to serotonin 5-HT2 receptors was determined as detailed previously [J. E. Leysen, C. J. E. Niemegers, J. M. Van Neuten and P. M. Laduron, Mol. Pharmacol., 21, 301-314 (1982)]. Rat cortical synaptosomal membranes were prepared on the day of assay. Animals were sacrified by decapitation, the frontal cortex was removed and homogenized in 10 volumes (w/v) of ice-cold 0.32M sucrose using a motor driven teflon pestle fitted to a glass tube. The synaptosomal pellet was suspended in 50 mM Tris HCl (pH 7.6 at 25° C.) to a concentration of 7.5 mg original wet weight/mL. For the binding reaction, 400 μL of this tissue suspension was added to polypropylene tubes containing 50 mM Tris HCl and [^3 H]ketanserin (final concentration of 1 nM) in a final assay volume of 0.5 mL. Following a 15 minute incubation at 37° C., the binding reaction was terminated by rapid vacuum filtration over Whatman GF/B filters (presoaked in 0.1% PEI) followed by 3×4 mL washes with ice cold 50 mM Tris HCl. Nonspecific binding was assessed in the presence of 10 μM methysergide. All incubations were performed in triplicate. IC50 values were determined using log logit analysis.

[2] = rat corpus striatum, 3 nM [3H]sulpiride, read-out: Dopamine D-2 [3H]sulpiride Ki
[3] = read-out: Serotonin 5-HT2 [3H]ketanserin, % @ 1 μM
[4] = read-out: Dopamine D-2 [3H]sulpiride Ki
[5] = read-out: Serotonin 5-HT2 [3H]ketanserin, value @ 1 μM
[6] = Dopamine D-2 [3H]sulpiride Ki, rat corpus striatum, 3 nM [3H]sulpiride

| SMILES | Ki (dopamine (D-2) receptors; [2]) [nM] | inhibition at 1 µM [1, 3] [%] | also measured |
| --- | --- | --- | --- |
| CCCN1C2CCC1c1c([nH]c3ccccc13)C2 (stereo not drawn) [1 H H (CH2)2 CH3 2] | 14400 ± 4400 |  |  |
| Fc1ccc2[nH]c3c(c2c1)C1CCC(C3)N1Cc1ccccc1I (stereo not drawn) [4 F H CH2 2-IPh 2] | 531000 | 0 |  |
| Fc1ccc(CCCCN2C3CCC2c2c([nH]c4ccccc24)C3)cc1 (stereo not drawn) [1 H H (CH2)4 4-FPh 2] |  |  | Ki [1]: 22.1 nM; Ki (dopamine (D-2) receptors; [4]): 1160 nM |
| c1ccc(CN2C3CCC2c2c([nH]c4ccccc24)C3)cc1 (stereo not drawn) [1 H H CH2 Ph 2] | 3650 | 22.4 |  |
| c1ccc(CCN2C3CCC2c2c([nH]c4ccccc24)C3)cc1 (stereo not drawn) [1 H H (CH2)2 Ph 2] | 840 | 8.8 |  |
| c1ccc2c(c1)CN(CCN1C3CCC1c1c([nH]c4ccccc14)C3)C2 (stereo not drawn) [7 H H (CH2)2 2-isoindolinyl 2] | 2200 ± 180 |  | inhibition at 1 µM [1, 5]: 55.1% |
| Cn1c2c(c3ccccc31)C1CCC(C2)N1CCCCc1ccccc1 (stereo not drawn) [5 H CH3 (CH2)4 Ph 2] | 1820 ± 80 | 49 |  |
| C=CCCN1C2CCC1c1c([nH]c3ccccc13)C2 (stereo not drawn) [1 H H (CH2)2 CHCH2 2] | 710 | 12.3 |  |
| Fc1ccc2[nH]c3c(c2c1)C1CCC(C3)N1CCCN1Cc2ccccc2C1 (stereo not drawn) [7 F H (CH2)3 2-isoindolinyl 2] | 1780 ± 630 |  | inhibition at 1 µM [1, 5]: 72.2% |
| O=C1CC2(CCCC2)CC(=O)N1CCCCN1C2CCC1c1c([nH]c3ccccc13)C2 (stereo not drawn) [1 H H (CH2)4 [drawing 3] 2] |  | 12 | Ki (dopamine (D-2) receptors; [6]): 2380 ± 560 nM |
| Fc1ccc(OCCCN2C3CCC2c2c([nH]c4ccccc24)C3)cc1 (stereo not drawn) [1 H H (CH2)3 O-4-FPh 2] |  |  | Ki [1]: 11.4 nM |
| O=C(CCCN1C2CCC1c1c([nH]c3ccccc13)C2)c1ccc(F)cc1 (stereo not drawn) [1 H H (CH2)3 CO 4-FPh 2] | 280 |  | Ki [1]: 0.82 nM |
| Fc1ccc2[nH]c3c(c2c1)C1CCC(C3)N1CCCc1cccnc1 (stereo not drawn) [4 F H (CH2)3 3-pyridyl 2] | 12200 ± 4700 | 0 |  |
| CN(CCc1ccc(Cl)c(Cl)c1)CCN1C2CCC1c1c([nH]c3ccccc13)C2 (stereo not drawn) [9 H H (CH2)2 N(CH3)CH2 CH2-3,4-Cl2 Ph 2] | 2530 ± 160 |  | inhibition at 1 µM [1, 5]: 34.7% |
| Clc1ccc(OCCN2C3CCC2c2c([nH]c4ccccc24)C3)cc1Cl (stereo not drawn) [7 H H (CH2)2 O-3,4-Cl2 Ph 2] | 650 | 48.9 |  |
| c1ccc(CCCN2C3CCC2c2c([nH]c4ccccc24)C3)cc1 (stereo not drawn) [1 H H (CH2)3 Ph 2] | 2600 |  | Ki [1]: 106 nM |
| c1ccc(CCCCN2C3CCC2c2c([nH]c4ccccc24)C3)cc1 (stereo not drawn) [1 H H (CH2)4 Ph 2] |  |  | Ki [1]: 56.5 nM; Ki (dopamine (D-2) receptors; [6]): 720 nM |
| Fc1ccc2[nH]c3c(c2c1)C1CCC(C3)N1CCCCc1ccccc1 (stereo not drawn) [4 F H (CH2)4 Ph 2] |  |  | Ki [1]: 74 nM; Ki (dopamine (D-2) receptors; [4]): 770 nM |
| Fc1ccc2[nH]c3c(c2c1)C1CCC(C3)N1 (stereo not drawn) [4 F H -- H 2] | 36600 | 28.2 |  |
| C(=C\c1ccccc1)/CN1C2CCC1c1c([nH]c3ccccc13)C2 (stereo not drawn) [1 H H E-CH2 CHCH Ph 2] | 2460 | 36.6 |  |
| CN1C2CCC1c1c([nH]c3ccccc13)C2 (stereo not drawn) [3 H H -- CH3 2] | 16700 ± 6000 | 26.4 |  |
| Clc1ccc(CCN2C3CCC2c2c([nH]c4ccccc24)C3)cc1Cl (stereo not drawn) [1 H H (CH2)2 3,4-Cl2 Ph 2] | 3430 | 6.7 |  |
| O=C1c2ccccc2C(=O)N1CCN1C2CCC1c1c([nH]c3ccccc13)C2 (stereo not drawn) [6 H H (CH2)2 2-phthalimido 2] | 52100 |  | inhibition at 1 µM [1, 5]: 5.3% |
| c1ccc(CCN2C3CCC2c2c(n(Cc4ccccc4)c4ccccc24)C3)cc1 (stereo not drawn) [5 H Bn (CH2)2 Ph 2] | 1620 | 23.3 |  |
| c1ccc(C(CCN2C3CCC2c2c([nH]c4ccccc24)C3)c2ccccc2)cc1 (stereo not drawn) [1 H H (CH2)2 CHPh2 2] | 4520 | 27.3 |  |
